Source: paper PMC7770833, “Design, Synthesis, and Biological Evaluation of a Series of Oxazolone Carboxamides as a Novel Class of Acid Ceramidase Inhibitors” (Journal of Medicinal Chemistry, 2020)

What was measured:
[1] = In vivo PK study in C57BL/6 mice; parameters: species or system mouse
Protocol: C57 B6/J male mice, 8 weeks old (22–24 g), were used (Charles River, Calco). All procedures were performed in accordance with the Ethical Guidelines of European Communities Council (Directive 2010/63/EU of 22 September 2010) and accepted by the Italian Ministry of Health. All efforts were made to minimize animal suffering and to use the minimal number of animals required to produce reliable results, according to the “3Rs rules”. Animals were group-housed in ventilated cages and had free access to food and water. They were maintained under a 12 h light/dark cycle (lights on at 8:00 am) at a controlled temperature (21 ± 1 °C) and relative humidity (55 ± 10%). 32b was administrated intravenously (i.v.) at 3 mg/kg/5 mL, vehicle: PEG400/Tween 80/saline solution (10/10/80% in volume, respectively) via tail vein injection and via oral administration (p.o.) at 10 mg/kg/10 mL, vehicle: PEG400/Tween 80/saline solution (10/10/80% in volume, respectively) by an oral gavage. Sample collection. Samples were collected at 5 min, 15 min, 30 min, 1 h, 2 h, and 4 h (i.v. administration) and at 15 min, 30 min, 1 h, 2 h, 4 h, and 6 h (p.o. administration). N = 3 animals per dose time point were treated. Plasma samples were centrifuged at 21,100g for 15 min at 4 °C. An aliquot of each sample was extracted (1:3) with cold CH3CN containing 200 nM of an appropriate internal standard being a close analogue of compound 32b. A calibration curve was prepared in blank mouse plasma over a 1 nM–10 μM range. Three quality controls were prepared by spiking compound 32b in the blank mouse plasma to 20, 200, and 2000 nM as final concentrations. The calibrators and quality controls were extracted (1:3) with the same extraction solution as the plasma samples. The plasma samples, the calibrators, and quality controls were centrifuged at 3270 × g for 15 min at 4 °C. The supernatants were further diluted (1:1) with H2O and analyzed by LC/MS–MS on a Waters Acquity UPLC/MS TQD system consisting of TQD) MS equipped with an ESI interface and a PDA detector. ESI was applied in positive mode. Compound-dependent parameters such as MRM transitions and collision energy were developed for compound 32b and the internal standard. The analyses were run on an Acquity UPLC BEH C18 (50 × 2.1 mm ID, particle size 1.7 μm) with a VanGuard BEH C18 pre-column (5 × 2.1 mm ID, particle size 1.7 μm) at 40 °C. For plasma samples, the mobile phase was H2O + 0.1% HCOOH (A) and CH3CN + 0.1% HCOOH (B) at a flow rate = 0.5 mL/min. A linear gradient was applied starting at 20% B with an initial hold for 0.2 min, then 20–100% B in 2 min. All samples (plasma samples, calibrators, and quality controls) were quantified by a MRM peak area response factor in order to determine the levels of compound 32b in the plasma. The concentrations versus time were plotted and the profiles were fitted using PK Solutions Excel Application (Summit Research Service, USA) in order to determine the PK parameters.

[2] = In vitro microsomal stability study, human liver microsomes; type: in vitro ADME
Protocol: Freshly prepared 10 mM CH3CN stock solution of the test compound was pre-incubated at 37 °C for 15 min with mouse/human liver microsomes added 0.1 M Tris-HCl buffer (pH 7.4). The final concentration was 4.6 μM. After pre-incubation, the cofactors (NADPH, G6P, G6PDH, and MgCl2 pre-dissolved in 0.1 M Tris-HCl) were added to the incubation mixture and the incubation was continued at 37 °C for 1 h. At each time point (0, 5, 15, 30, and 60 min), 30 μL of the incubation mixture was diluted with 200 μL of cold CH3CN spiked with 200 nM of the internal standard, followed by centrifugation at 3300g for 15 min. The supernatant was further diluted with H2O (1:1) for analysis. The concentration of the test compound was quantified by LC/MS–MS on a Waters Acquity UPLC/MS TQD system consisting of TQD MS equipped with an ESI interface. The analyses were run on an Acquity UPLC BEH C18 (50 × 2.1 mm ID, particle size 1.7 μm) with a VanGuard BEH C18 pre-column (5 × 2.1 mm ID, particle size 1.7 μm) at 40 °C. For each compound, the appropriate mobile phase was chosen. ESI was applied in positive mode. The percentage of the test compound remaining at each time point relative to t = 0 was calculated. The t1/2 were determined by a one-phase decay equation using a nonlinear regression of the compound concentration versus time. […]

Vdss (mL/kg) ([1]; 10 mg/kg, p.o.): 32 877 mL/kg | AUC at 4 h ([1]; male, mouse, iv, 3 mg/kg, plasma): 533 ng·h/mL | clearance at 4 h ([1]; male, mouse, plasma, iv, 3 mg/kg): 72 mL/min/kg | Vd at 4 h ([1]; male, mouse, plasma, iv, 3 mg/kg, i.v., read-out: Vdss (converted)): 12.4 L/kg | AUC at 4 h ([1]; male, mouse, po, 10 mg/kg, plasma): 709 ng·h/mL | h-liver microsomes % compound remaining at 1 h ([2]; 1 h): 80% | half-life at 4.6 μM ([2]; pH 7.4, read-out: h-liver microsomal stability t1/2): > 1 h
Structure (SMILES): CCCCCNC(=O)n1cc(-c2ccc(F)cc2C2CCN(C)CC2)oc1=O [Compound 32b, 5-[4-Fluoro-2-(1-methyl-4-piperidyl)phenyl]-2-oxo-N-pentyl-oxazole-3-carboxamide]
